Broadly, the EC50 is the concentration at which the effect is half-maximal. As usually defined, the Ki is the dissociation constant of the complex between target and ligand, obtained from inhibition or displacement.

This is an account of results in PMC7792944, “Pharmacological Characterization of µ-Opioid Receptor Agonists with Biased G Protein or β-Arrestin Signaling, and Computational Study of Conformational Changes during Receptor Activation” (Molecules, 2020).

Where “and” joins values, the source holds several entries; their conditions need not be identical. Equal entries are not always repeated. Bridge positions count the residues as written; N and C are the ends. Square brackets hold non-standard residues; d marks the D form. Ends that are not written are not given here. Peptide text beside a SMILES is read from it. Phe(4-CF3) = N[C@@H](Cc1ccc(C(F)(F)F)cc1)C(=O)O; Dmt = Cc1cc(O)cc(C)c1C[C@H](N)C(=O)O

Data set [1] concerns the target T1, human MOP (Homo sapiens, UniProt P35372).
T1 construct: originator Prof L. Toll, SRI International; host or cells: CHO (CHO-hMOP), membranes
Description: [35S]GTPγS binding assay (G-protein activation) in CHO-hMOP cell membranes. The format is biochemical. Conditions: for %Stim: efficacy normalized to the maximum stimulation caused by EM-1. As for the experimental part:
Herein, for the first time the biased agonism of F-81 and C-33 is analyzed by [^35S]GTPγS binding assay (Table 1) and PathHunter enzyme complementation assay (Table 2). [^35S]GTPγS binding assay, which characterizes ligand-driven G protein activation, was performed in CHO cells stably expressing the human MOP [46, 47].
[^35S]GTPγS binding assay. CHO cells stably expressing the human MOP receptor (in brief, CHO-hMOP cells, provided by Prof G. Calo, University of Ferrara; originator was Prof L. Toll, SRI International, Menlo Park, CA, USA) were grown in Hams F12 containing streptomycin (100 μg/mL), fungizone 2.5 μg/mL), penicillin (100 IU/mL) and 10% fetal bovine serum (FBS). Stock medium containing G418 (200 μg/mL) was used to maintain CHO-hMOP expression. Experiments were performed according to the literature. Cell membranes (5–10 µg) were incubated at 30 °C with 0.05 nM [^35S]GTPγS (PekinElmer, 549 Albany St, Boston, MA 02118, US), 10 µM GDP and various concentrations of a tested peptide in the final volume of 1 mL, for 60 min. Non-specific binding was determined using 10 µM GTPγS, and the basal binding was determined in the absence of a tested peptide. Incubations were terminated by rapid filtration through the GF/B Whatman glass fiber strips and the bound radioactivity was measured in a liquid scintillation counter. Five independent experiments were carried out. The data were analyzed by a nonlinear least square regression analysis computer program Graph Pad PRISM 5.0 (GraphPad Software Inc., San Diego, CA, USA).

The target of data set [2] is T2, CHO-K1 OPRM1 (μ-opioid receptor (MOP))/β-arrestin 2 (Homo sapiens, UniProt P35372).
T2 construct: host or cells: CHO-K1 (CHO-K1 OPRM1 β-arrestin cell line)
T2 sequence (P35372 whole entry): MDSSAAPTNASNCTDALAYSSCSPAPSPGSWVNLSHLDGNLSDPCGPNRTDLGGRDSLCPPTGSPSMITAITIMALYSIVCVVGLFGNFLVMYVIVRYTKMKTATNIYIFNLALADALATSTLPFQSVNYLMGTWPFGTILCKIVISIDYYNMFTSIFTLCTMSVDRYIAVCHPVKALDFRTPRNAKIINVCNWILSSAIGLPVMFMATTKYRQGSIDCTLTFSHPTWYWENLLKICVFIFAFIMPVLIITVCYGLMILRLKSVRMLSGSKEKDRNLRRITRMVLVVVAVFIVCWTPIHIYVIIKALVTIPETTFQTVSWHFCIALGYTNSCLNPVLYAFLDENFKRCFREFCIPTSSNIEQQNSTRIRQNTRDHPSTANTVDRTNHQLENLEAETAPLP
T2 sequence (P32121 whole entry partner): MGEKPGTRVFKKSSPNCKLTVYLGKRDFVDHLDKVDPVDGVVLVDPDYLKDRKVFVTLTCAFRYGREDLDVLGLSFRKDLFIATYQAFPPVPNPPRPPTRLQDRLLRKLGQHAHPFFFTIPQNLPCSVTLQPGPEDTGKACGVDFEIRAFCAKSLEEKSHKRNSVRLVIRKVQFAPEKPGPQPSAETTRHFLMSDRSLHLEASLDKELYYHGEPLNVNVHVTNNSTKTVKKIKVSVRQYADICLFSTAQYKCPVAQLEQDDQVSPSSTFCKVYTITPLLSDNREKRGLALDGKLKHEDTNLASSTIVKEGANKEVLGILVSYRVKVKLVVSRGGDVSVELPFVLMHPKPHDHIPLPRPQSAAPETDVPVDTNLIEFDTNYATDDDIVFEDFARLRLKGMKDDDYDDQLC
The data set is described as follows: PathHunter enzyme complementation assay, β-arrestin 2 recruitment. The class given is cell-based. Particulars: for EC50 / %Stim: CHO-K1 OPRM1 β-arrestin 2 cell line; for EC50: mean ± SEM, n = 5; for %Stim: normalized to the maximum stimulation caused by EM-1 (100%). As for the experimental part: Since in most studies reported in the introduction, β-arrestin 2 was used, for easy comparison we decided to characterize this isoform, despite being the minority as compared to β-arrestin 1 in most cells, including neurons. The use of β-arrestin 2 is supported by its similarity in opioid receptor binding with β-arrestin 1 [37, 50].
Measurement of β-arrestin 2 recruitment. β-arrestin 2 recruitment at MOP was measured using the DiscoveRxPathHunter® β-arrestin kit (DiscoveRx, Fremont, CA, USA) according to manufacturer’s recommendations and previously published procedure. CHO cells were engineered to co-express the ProLink™ (PK) tagged GPCR (GPCR-PK) and the enzyme acceptor (EA) tagged β-arrestin 2 (β-arrestin-EA) (CHO-K1 OPRM1 β-arrestin cell line). Activation of the GPCR-PK induces β-arrestin-EA recruitment, forcing complementation of the two β-galactosidase enzyme fragments (EA and PK). The resulting functional enzyme hydrolyzes substrate to generate a chemiluminescent signal which was measured by luminometry. Briefly, 20 μL of PathHunter cells as taken from the kit were seeded in each well and incubated overnight at 37 °C. […] Detection Reagent Working Solution (12 μL) was added and incubation was continued for 60 min at rt. Chemiluminescent signal was read using a Viewlux imaging plate reader (PerkinElmer, Cambridge, MA, USA).
(Arrestin recruitment assays detect the binding of arrestin to an activated receptor.)

Data set [3] deals with MOP. Details: method as in ref [44] (F-81), [45] (C-33). Conditions: [3H]DAMGO, human opioid receptor membranes; ref [44] (F-81), [45] (C-33); cited from earlier work.
Data set [4] deals with KOP. Details: method as in ref [44] (F-81), [45] (C-33). Conditions: [3H]U-69593, human opioid receptor membranes; ref [44] (F-81), [45] (C-33); cited from earlier work.
Data set [5] deals with DPP IV. The arrangement: method as in ref [44] (F-81), [45] (C-33). Conditions: ref [44] (F-81), [45] (C-33); cited from earlier work.
On the set-up of data set [6]: method as in ref [44] (F-81), [45] (C-33). Conditions: ref [44] (F-81), [45] (C-33); cited from earlier work.
The subject of data set [7] is human recombinant MOP. Conditions: cited from earlier work; for MOP pEC50 (CL95%): calcium signaling via chimeric G proteins, ref [44] (EM-2, DPDPE, Dyn A, F-81); for MOP pEC50 (CL95%) / MOP α±SEM: [45] (C-33); for MOP α±SEM: maximal effect, calcium signaling, ref [44].
In data set [8] the test system is human recombinant DOP. Details: method as in ref [44], [45] (C-33). Conditions: ref [44], [45] (C-33), cited from earlier work; for DOP pEC50 (CL95%): calcium signaling via chimeric G proteins; for DOP α±SEM: maximal effect, calcium signaling.
Data set [9] concerns human recombinant KOP. Details: method as in ref [44], [45] (C-33). Conditions: ref [44], [45] (C-33), cited from earlier work; for KOP pEC50 (CL95%): calcium signaling via chimeric G proteins; for KOP α±SEM: maximal effect, calcium signaling.
Data set [10] concerns MOP/G-protein. Conditions: BRET, [45] (C-33), cited from earlier work; for MOP/G-protein α±SEM: maximal effect, ref [44]; for MOP/G-protein pEC50 (CL95%): ref [44] (EM-2, F-81). For orientation: In BRET a luciferase serves as donor, and the signal depends on an acceptor being close.
Data set [11] deals with MOP/β-arrestin 2. Conditions: cited from earlier work; for MOP/β-arrestin 2 pEC50 (CL95%): ref [44] (EM-2, F-81).
The target of data set [12] is DOP. Conditions: read-out: Ki DOP; [3H]deltorphin-2, human opioid receptor membranes; ref [44] (F-81), [45] (C-33); cited from earlier work.
The test system of data set [13] is MOP. Details: method as in PMID 31351108. Particulars: Gαi2 and GαoA; ref [43]; cited from earlier work.

T1 sequence (P35372 whole entry): as the sequence (P35372 whole entry) above

In turn, `Cc1cc(O)cc(C)c1C[C@H](N)C(=O)N[C@@H]1CCCCNC(=O)C[C@@H](C(N)=O)NC(=O)[C@H](Cc2ccc(C(F)(F)F)cc2)NC(=O)[C@H](Cc2ccccc2)NC1=O` [F-81, Dmt-c[D-Lys-Phe-p-CF3-Phe-Asp]NH2] (H-[Dmt][dK]F[Phe(4-CF3)]D-NH2; lactam 2-5) gave a concentration for a half-maximal effect (EC50) in data set [1] of 0.112 nM. The Class result in data set [1] (CHO-hMOP, [35S]GTPγS binding) is “high efficacy partial agonist”. Also, the “%Stim” value in data set [1] (CHO-hMOP) is listed as 68 ± 1 %. Moreover, in data set [2], a half-maximal effect (EC50) was put at 0.398 nM; the “%Stim” value is 41% and 41 ± 15 %. Moreover, the “agonist behaviour, β-arrestin 2 recruitment (in words)” value in data set [2] (PathHunter, compared to EM-1) is “low efficacy partial agonist”. Further, the Ki in [3] was 2.4 nM. In addition, the inhibitory constant (Ki) in data set [4] was 31.1 nM. The “Enzymatic stability Area [%] 120 min DPP IV” value in [5] was 92.1±3.27%. In [6], the “Enzymatic stability Area [%] 120 min Homogenate” value is on record as 90.7±3.14%. Moreover, the “higher potency than the reference EM-2” value in [7] (calcium mobilization assay, MOP, ref [44],[45]) is 2 fold. In data set [7], the “MOP pEC50 (CL95%)” value is recorded as 8.19 and the “MOP α±SEM” value is given as 0.8±0.05. For the same compound, in data set [8], the “DOP pEC50 (CL95%)” value was “inactive”. For the same compound, in [9], the “KOP pEC50 (CL95%)” value was 8.22 and the “KOP α±SEM” value is recorded as 0.63±0.04. Moreover, in [10], the “MOP/G-protein α±SEM” value was 0.82±0.04 and the “MOP/G-protein pEC50 (CL95%)” value is given as 8.28. For the same compound, the “MOP/β-arrestin 2 pEC50 (CL95%)” value in [11] (BRET, [45] (C-33)) is “inactive”. For the same compound, the “receptor/β-arrestin interaction (in words)” value in data set [11] (BRET, ref [44]) was “did not promote receptor/β-arrestin interaction”. In [12], the inhibitory constant (Ki) was above 1000 nM.
Regarding `Cc1cc(O)cc(C)c1C[C@H](N)C(=O)N[C@@H]1CCCCNC(=O)C[C@@H](C(N)=O)NC(=O)[C@H](Cc2ccccc2)NC1=O` [C-33, Dmt-c[D-Lys-Phe-Asp]NH2] (H-[Dmt][dK]FD-NH2; lactam 2-4), the half-maximal effective concentration (EC50) is 0.0794 nM in [1] and 2.51 nM in [2]. In addition, the “%Stim” value in data set [1] (CHO-hMOP) is 88 ± 3%; in data set [2], 156% and 156 ± 3 %. In addition, the “Enzymatic stability Area [%] 120 min DPP IV” value in data set [5] is 91.1±4.21%. Also, in data set [6], the “Enzymatic stability Area [%] 120 min Homogenate” value is listed as 89±2.27%.
In the case of `COc1ccsc1CNCC[C@]1(c2ccccn2)CCOC2(CCCC2)C1` [(S)-TRV130], the “G protein activation, less potent compared to its (R)-isomer” value in data set [13] is given as 90 fold.
As to DPDPE, in [7], the “MOP pEC50 (CL95%)” value is “inactive”. For the same compound, in data set [8], the “DOP pEC50 (CL95%)” value was 7.33 and the “DOP α±SEM” value is on record as 1.00. The “KOP pEC50 (CL95%)” value in data set [9] is “inactive”.
On to “Tyr-Pro-Phe-Phe-NH2 (YPFF-NH2) [EM-2, reference compound]”, for which the Ki in data set [3] was 2.5 ± 0.05 nM. For the same compound, in data set [4], the inhibition constant Ki is above 1000 nM. The “Enzymatic stability Area [%] 120 min DPP IV” value in data set [5] is reported as 1.9±0.03%. For the same compound, the “Enzymatic stability Area [%] 120 min Homogenate” value in data set [6] was 6.5±0.15%. In [7], the “MOP pEC50 (CL95%)” value is on record as 7.83 and the “MOP α±SEM” value is recorded as 1.00. In addition, the “DOP pEC50 (CL95%)” value in data set [8] was “inactive”. Moreover, the “KOP pEC50 (CL95%)” value in data set [9] was “inactive”. In addition, in data set [10], the “MOP/G-protein α±SEM” value was 1.00 and the “MOP/G-protein pEC50 (CL95%)” value was 7.32. The “MOP/β-arrestin 2 α±SEM” value in data set [11] (BRET, maximal effect, ref [44], [45] (C-33)) is reported as 1.00. The “MOP/β-arrestin 2 pEC50 (CL95%)” value in data set [11] (BRET, [45] (C-33)) is recorded as 7.20. The “bias factor (CL95%)” value in data set [11] (calculated by using EM-2 as a standard unbiased ligand, ref [44], [45] (C-33)) is 0.00. Moreover, in data set [12], the Ki was above 1000 nM.
Consider “Dyn A: reference agonist in calcium mobilization assay (KOP)”, for which, in [7], the “MOP pEC50 (CL95%)” value is given as 6.67 and the “MOP α±SEM” value is 0.83±0.10. Further, in data set [8], the “DOP pEC50 (CL95%)” value is 7.73 and the “DOP α±SEM” value is given as 0.99±0.04. The “KOP α±SEM” value in [9] is given as 1.00.
